In patent publication US9695155B2, “Herbicidal substituted pyrimidinyloxy benzene compounds” (E. I. DU PONT DE NEMOURS AND COMPANY, priority 2013, dated 2017):

Columns and labels:
rice = experiment: Test C flooded paddy test; type: in vivo, Oryza sativa; conditions: Flood, scale 0 to 100 (0 no effect, 100 complete control), 13 to 15 days
Procedure, shortened: (§1)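 Pots were flooded to 3 cm above the soil surface at treatment, compound applied directly to the paddy water, and that depth held throughout. Plants were kept in a greenhouse for 13 to 15 days, then visually rated against untreated controls.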

barnyardgrass = experiment: Test E postemergence; type: in vivo, Echinochloa crus-galli
Procedure, shortened: (§2)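 Compound in a non-phytotoxic solvent mixture with surfactant was applied preemergence to seeds in silt loam soil, or postemergence to plants 2 to 18 cm tall grown in peat-based potting medium. Plants were kept in a greenhouse for 14 to 21 days, then rated visually against untreated controls on a 0 (no effect) to 100 (complete control) scale.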

corn = experiment: Test E postemergence; type: in vivo, Zea mays
Procedure, shortened: as §2

ducksalad = experiment: Test C flooded paddy test; type: in vivo, Heteranthera limosa; conditions: Flood, scale 0 to 100 (0 no effect, 100 complete control), 13 to 15 days
Procedure, shortened: as §1

arrowleaf sida = experiment: Test E postemergence; type: in vivo, Sida rhombifolia
Procedure, shortened: as §2

sandbur = experiment: Test E postemergence; type: in vivo, Cenchrus echinatus
Procedure, shortened: as §2

soybean = experiment: Test E postemergence; type: in vivo, Glycine max
Procedure, shortened: as §2

Brazilian crabgrass = experiment: Test E postemergence; type: in vivo, Digitaria horizontalis
Procedure, shortened: as §2

[1] = Postemergence, 31 g ai/ha, scale 0 to 100
[2] = Postemergence, 62 g ai/ha, scale 0 to 100
[3] = Postemergence, 125 g ai/ha, scale 0 to 100
[4] = postemergence, 8 g ai/ha, scale 0 to 100, 0 no effect, 100 complete control
[5] = postemergence, 16 g ai/ha, scale 0 to 100, 0 no effect, 100 complete control

FC(F)(F)c1cnn(-c2c(Br)cccc2Oc2ncc(Cl)cn2)c1 [Compound 191]
10: Plant response rating, Corn (corn; [1]) | Plant response rating, Corn (corn; [2]) | Plant response rating, Sandbur (sandbur; [3]) | Plant response rating, Crabgrass, Brazil (Brazilian crabgrass; [1]) | Plant response rating, Crabgrass, Brazil (Brazilian crabgrass; [2]) | Plant response rating, Crabgrass, Brazil (Brazilian crabgrass; [4]) | Plant response rating, Crabgrass, Brazil (Brazilian crabgrass; [5])
15: Plant response rating, Corn (corn; [3])
30: Plant response rating, Ducksalad (ducksalad; 31 g ai/ha) | Plant response rating, Soybean (soybean; [5])
80: Plant response rating, Ducksalad (ducksalad; 250 g ai/ha)
100: Plant response rating, Arrowleaf Sida (arrowleaf sida; [3])
60: Plant response rating, Arrowleaf Sida (arrowleaf sida; [5]) | Plant response rating, Soybean (soybean; [1])
95: Plant response rating, Soybean (soybean; [3])
70: Plant response rating, Arrowleaf Sida (arrowleaf sida; [1]) | Plant response rating, Arrowleaf Sida (arrowleaf sida; [2])
50: Plant response rating, Ducksalad (ducksalad; 62 g ai/ha) | Plant response rating, Arrowleaf Sida (arrowleaf sida; [4]) | Plant response rating, Soybean (soybean; [2])
0: Plant response rating, Rice (rice; 31 g ai/ha) | Plant response rating, Rice (rice; 62 g ai/ha) | Plant response rating, Rice (rice; 125 g ai/ha) | Plant response rating, Rice (rice; 250 g ai/ha) | Plant response rating, Barnyardgrass (barnyardgrass; [1]) | Plant response rating, Barnyardgrass (barnyardgrass; [2]) | Plant response rating, Barnyardgrass (barnyardgrass; [3]) | Plant response rating, Barnyardgrass (barnyardgrass; [4]) | Plant response rating, Barnyardgrass (barnyardgrass; [5]) | Plant response rating, Corn (corn; [4]) | Plant response rating, Corn (corn; [5]) | Plant response rating, Sandbur (sandbur; [1]) | Plant response rating, Sandbur (sandbur; [2]) | Plant response rating, Sandbur (sandbur; [4]) | Plant response rating, Sandbur (sandbur; [5])
20: Plant response rating, Soybean (soybean; [4]) | Plant response rating, Crabgrass, Brazil (Brazilian crabgrass; [3])
75: Plant response rating, Ducksalad (ducksalad; 125 g ai/ha)

Clc1cnn(-c2ccccc2Oc2ncc(Br)cn2)c1 [Compound 5, 5-bromo-2-[2-(4-chloro-1H-pyrazol-1-yl)phenoxy]pyrimidine]
0%: pest or weed control at 31 g/ha (barnyardgrass; Echinochloa crus-galli, post-emergence, Postemergence, 31 g ai/ha, scale 0 to 100, read-out: Plant response rating, Barnyardgrass) | pest or weed control at 62 g/ha (barnyardgrass; Echinochloa crus-galli, post-emergence, Postemergence, 62 g ai/ha, scale 0 to 100, read-out: Plant response rating, Barnyardgrass) | pest or weed control at 125 g/ha (barnyardgrass; Echinochloa crus-galli, post-emergence, Postemergence, 125 g ai/ha, scale 0 to 100, read-out: Plant response rating, Barnyardgrass) | pest or weed control at 16 g/ha (barnyardgrass; Echinochloa crus-galli, post-emergence, postemergence, 16 g ai/ha, scale 0 to 100, 0 no effect, 100 complete control, read-out: Plant response rating, Barnyardgrass) | corn plant response (injury) rating, 0-100 at 31 g/ha (corn; Zea mays, post-emergence, Postemergence, 31 g ai/ha, scale 0 to 100) | corn plant response (injury) rating, 0-100 at 62 g/ha (corn; Zea mays, post-emergence, Postemergence, 62 g ai/ha, scale 0 to 100) | corn plant response (injury) rating, 0-100 at 125 g/ha (corn; Zea mays, post-emergence, Postemergence, 125 g ai/ha, scale 0 to 100) | corn plant response (injury) rating, 0-100 at 250 g/ha (corn; Zea mays, post-emergence, Postemergence, 250 g ai/ha, scale 0 to 100) | corn plant response (injury) rating, 0-100 at 16 g/ha (corn; Zea mays, post-emergence, postemergence, 16 g ai/ha, scale 0 to 100, 0 no effect, 100 complete control) | pest or weed control at 31 g/ha (sandbur; Cenchrus echinatus, post-emergence, Postemergence, 31 g ai/ha, scale 0 to 100, read-out: Plant response rating, Sandbur) | pest or weed control at 62 g/ha (sandbur; Cenchrus echinatus, post-emergence, Postemergence, 62 g ai/ha, scale 0 to 100, read-out: Plant response rating, Sandbur) | pest or weed control at 16 g/ha (sandbur; Cenchrus echinatus, post-emergence, postemergence, 16 g ai/ha, scale 0 to 100, 0 no effect, 100 complete control, read-out: Plant response rating, Sandbur) | pest or weed control at 16 g/ha (Brazilian crabgrass; Digitaria horizontalis, post-emergence, postemergence, 16 g ai/ha, scale 0 to 100, 0 no effect, 100 complete control, read-out: Plant response rating, Crabgrass, Brazil)
70%: pest or weed control at 62 g/ha (arrowleaf sida; Sida rhombifolia, post-emergence, Postemergence, 62 g ai/ha, scale 0 to 100, read-out: Plant response rating, Arrowleaf Sida) | plant response (crop injury) rating, soybean, 0-100 scale at 62 g/ha (soybean; Glycine max, post-emergence, Postemergence, 62 g ai/ha, scale 0 to 100)
95%: plant response (crop injury) rating, soybean, 0-100 scale at 250 g/ha (soybean; Glycine max, post-emergence, Postemergence, 250 g ai/ha, scale 0 to 100)
85%: pest or weed control at 250 g/ha (arrowleaf sida; Sida rhombifolia, post-emergence, Postemergence, 250 g ai/ha, scale 0 to 100, read-out: Plant response rating, Arrowleaf Sida)
10%: pest or weed control at 250 g/ha (barnyardgrass; Echinochloa crus-galli, post-emergence, Postemergence, 250 g ai/ha, scale 0 to 100, read-out: Plant response rating, Barnyardgrass) | pest or weed control at 125 g/ha (sandbur; Cenchrus echinatus, post-emergence, Postemergence, 125 g ai/ha, scale 0 to 100, read-out: Plant response rating, Sandbur) | pest or weed control at 62 g/ha (Brazilian crabgrass; Digitaria horizontalis, post-emergence, Postemergence, 62 g ai/ha, scale 0 to 100, read-out: Plant response rating, Crabgrass, Brazil) | pest or weed control at 125 g/ha (Brazilian crabgrass; Digitaria horizontalis, post-emergence, Postemergence, 125 g ai/ha, scale 0 to 100, read-out: Plant response rating, Crabgrass, Brazil)
60%: pest or weed control at 31 g/ha (arrowleaf sida; Sida rhombifolia, post-emergence, Postemergence, 31 g ai/ha, scale 0 to 100, read-out: Plant response rating, Arrowleaf Sida) | pest or weed control at 16 g/ha (arrowleaf sida; Sida rhombifolia, post-emergence, postemergence, 16 g ai/ha, scale 0 to 100, 0 no effect, 100 complete control, read-out: Plant response rating, Arrowleaf Sida)
30%: plant response (crop injury) rating, soybean, 0-100 scale at 31 g/ha (soybean; Glycine max, post-emergence, Postemergence, 31 g ai/ha, scale 0 to 100)
20%: pest or weed control at 250 g/ha (sandbur; Cenchrus echinatus, post-emergence, Postemergence, 250 g ai/ha, scale 0 to 100, read-out: Plant response rating, Sandbur) | plant response (crop injury) rating, soybean, 0-100 scale at 16 g/ha (soybean; Glycine max, post-emergence, postemergence, 16 g ai/ha, scale 0 to 100, 0 no effect, 100 complete control) | pest or weed control at 250 g/ha (Brazilian crabgrass; Digitaria horizontalis, post-emergence, Postemergence, 250 g ai/ha, scale 0 to 100, read-out: Plant response rating, Crabgrass, Brazil)
5%: pest or weed control at 31 g/ha (Brazilian crabgrass; Digitaria horizontalis, post-emergence, Postemergence, 31 g ai/ha, scale 0 to 100, read-out: Plant response rating, Crabgrass, Brazil)
80%: pest or weed control at 125 g/ha (arrowleaf sida; Sida rhombifolia, post-emergence, Postemergence, 125 g ai/ha, scale 0 to 100, read-out: Plant response rating, Arrowleaf Sida) | plant response (crop injury) rating, soybean, 0-100 scale at 125 g/ha (soybean; Glycine max, post-emergence, Postemergence, 125 g ai/ha, scale 0 to 100)
